Measurements taken from PubChem BioAssay (NCI).
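Exposure lasted 48 hours, with cells grown in 96-well plates and compounds tested at five concentrations. At the TGI there is no net growth.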

Legend:
Assay in all cases: DTP human tumour cell line panel, 48 h
[1] = test system: OVCAR-3 ovarian
[2] = test system: 786-0 renal
[3] = test system: T-47D breast
[4] = test system: EKVX NSCLC
[5] = test system: COLO 205 colon
[6] = test system: SF-539 CNS
[7] = test system: MCF7 breast
[8] = test system: PC-3 prostate
[9] = test system: NCI-H522 lung
[10] = test system: MDA-MB-231 breast
[11] = test system: MOLT-4 leukemia
[12] = test system: KM12 colon
[13] = test system: NCI/ADR-RES ovarian
[14] = test system: HCT-116 colon
[15] = test system: SN12C renal
[16] = test system: UACC-62 melanoma
[17] = test system: A549 NSCLC
[18] = test system: SR leukemia
[19] = test system: SK-MEL-5 melanoma
[20] = test system: BT-549 breast
[21] = test system: SF-295 CNS
[22] = test system: SF-268 CNS
[23] = test system: OVCAR-8 ovarian
[24] = test system: NCI-H226 lung
[25] = test system: OVCAR-5 ovarian
[26] = test system: MALME-3M melanoma
[27] = test system: RPMI-8226 leukemia
[28] = test system: UO-31 renal
[29] = test system: SNB-75 CNS
[30] = test system: HS 578T breast
[31] = test system: NCI-H460 lung
[32] = test system: MDA-N
[33] = test system: HCC-2998 colon
[34] = test system: UACC-257 melanoma
[35] = test system: TK-10 renal
[36] = test system: U251 CNS
[37] = test system: CAKI-1 renal
[38] = test system: MDA-MB-435
[39] = test system: HL-60(TB) leukemia
[40] = test system: RXF 393 renal
[41] = test system: DU-145 prostate
[42] = test system: SNB-19 CNS
[43] = test system: HCT-15 colon
[44] = test system: NCI-H23 lung
[45] = test system: CCRF-CEM leukemia
[46] = test system: IGROV1 ovarian
[47] = test system: SW-620 colon
[48] = test system: HOP-62 NSCLC
[49] = test system: K-562 leukemia
[50] = test system: LOX IMVI melanoma
[51] = test system: ACHN renal
[52] = test system: SK-MEL-28 melanoma
[53] = test system: SK-OV-3 ovarian
[54] = test system: HOP-92 NSCLC
[55] = test system: OVCAR-4 ovarian
[56] = test system: HT29 colon
[57] = test system: A498 renal
[58] = test system: SK-MEL-2 melanoma
[59] = test system: M14 melanoma

`O=C(O)Cc1cccc2c1OC(c1ccccc1)C(C(=O)c1ccccc1)C2=O` (stereo not drawn) was tested, and the TGI [1] was > 100 µM, the TGI [2] was > 100 µM and the TGI [3] was 56.9 µM. For the same compound, the TGI [4] was > 100 µM, the TGI [5] was > 100 µM and the TGI [6] was > 100 µM. For the same compound, the TGI [7] was > 100 µM, the TGI [8] was > 100 µM and the TGI [9] was > 100 µM. For the same compound, the TGI [10] was > 100 µM, the TGI [11] was > 100 µM and the TGI [12] was > 100 µM. For the same compound, the TGI [13] was > 100 µM, the TGI [14] was > 100 µM and the TGI [15] was > 100 µM. The TGI [16] was 48.7 µM, the TGI [17] was > 100 µM and the TGI [18] was > 100 µM. The TGI [19] was > 100 µM, the TGI [20] was > 100 µM and the TGI [21] was > 100 µM. For the same compound, the TGI [22] was > 100 µM, the TGI [23] was > 100 µM and the TGI [24] was > 100 µM. The TGI [25] was > 100 µM, the TGI [26] was > 100 µM and the TGI [27] was > 100 µM. For the same compound, the TGI [28] was > 100 µM, the TGI [29] was 51.3 µM and the TGI [30] was > 100 µM. For the same compound, the TGI [31] was > 100 µM, the TGI [32] was > 100 µM and the TGI [33] was 59.7 µM. The TGI [34] was > 100 µM, the TGI [35] was 79.9 µM and the TGI [36] was > 100 µM. The TGI [37] was > 100 µM, the TGI [38] was > 100 µM and the TGI [39] was 50.9 µM. For the same compound, the TGI [40] was > 100 µM, the TGI [41] was > 100 µM and the TGI [42] was > 100 µM. For the same compound, the TGI [43] was > 100 µM, the TGI [44] was > 100 µM and the TGI [45] was > 100 µM. The TGI [46] was > 100 µM, the TGI [47] was > 100 µM and the TGI [48] was > 100 µM. For the same compound, the TGI [49] was > 100 µM, the TGI [50] was > 100 µM and the TGI [51] was > 100 µM. The TGI [52] was > 100 µM and the TGI [53] was > 100 µM.
`CCN1C(=O)c2ccccc2C1(O)c1ccc(Cl)cc1` (stereo not drawn) was tested, and the TGI [1] was > 100 µM, the TGI [2] was > 100 µM and the TGI [3] was > 100 µM. The TGI [4] was > 100 µM, the TGI [5] was > 100 µM and the TGI [6] was > 100 µM. The TGI [7] was > 100 µM, the TGI [54] was > 100 µM and the TGI [8] was 80.6 µM. The TGI [10] was > 100 µM, the TGI [11] was > 100 µM and the TGI [55] was > 100 µM. The TGI [12] was > 100 µM, the TGI [13] was > 100 µM and the TGI [14] was > 100 µM. The TGI [56] was > 100 µM, the TGI [57] was > 100 µM and the TGI [15] was > 100 µM. The TGI [16] was > 100 µM, the TGI [17] was > 100 µM and the TGI [18] was > 100 µM. For the same compound, the TGI [19] was > 100 µM, the TGI [20] was > 100 µM and the TGI [21] was 63.2 µM. For the same compound, the TGI [22] was > 100 µM, the TGI [23] was > 100 µM and the TGI [24] was 74.3 µM. The TGI [25] was > 100 µM, the TGI [27] was > 100 µM and the TGI [28] was > 100 µM. For the same compound, the TGI [30] was > 100 µM, the TGI [31] was > 100 µM and the TGI [32] was > 100 µM. For the same compound, the TGI [33] was > 100 µM, the TGI [34] was > 100 µM and the TGI [58] was 83.6 µM. The TGI [35] was > 100 µM, the TGI [36] was > 100 µM and the TGI [37] was > 100 µM. The TGI [38] was > 100 µM, the TGI [39] was > 100 µM and the TGI [59] was > 100 µM. For the same compound, the TGI [41] was > 100 µM, the TGI [42] was > 100 µM and the TGI [43] was > 100 µM. The TGI [44] was > 100 µM, the TGI [45] was > 100 µM and the TGI [46] was > 100 µM. For the same compound, the TGI [47] was > 100 µM, the TGI [48] was > 100 µM and the TGI [49] was > 100 µM. The TGI [50] was > 100 µM, the TGI [51] was > 100 µM and the TGI [52] was > 100 µM. For the same compound, the TGI [53] was > 100 µM.
